One may read the IC50 as the concentration that inhibits the measured activity by half.

Data on 13 compounds can be found in PMC8165160, “Substrate Specificities and Inhibition Pattern of the Solute Carrier Family 10 Members NTCP, ASBT and SOAT” (Frontiers in Molecular Biosciences, 2021).

For assay [1], the target named is T1, NTCP (Homo sapiens, UniProt Q14973).
T1 sequence (Q14973 1-349): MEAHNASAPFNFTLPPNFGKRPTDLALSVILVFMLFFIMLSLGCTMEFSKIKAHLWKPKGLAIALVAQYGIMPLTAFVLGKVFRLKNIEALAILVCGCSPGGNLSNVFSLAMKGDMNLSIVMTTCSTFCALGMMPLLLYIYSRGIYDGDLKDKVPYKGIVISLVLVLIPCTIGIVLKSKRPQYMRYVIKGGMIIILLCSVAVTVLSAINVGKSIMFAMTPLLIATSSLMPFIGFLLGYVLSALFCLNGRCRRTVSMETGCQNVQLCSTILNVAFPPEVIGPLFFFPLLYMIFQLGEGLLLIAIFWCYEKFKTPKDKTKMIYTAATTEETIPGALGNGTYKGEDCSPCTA
As to the kind of experiment: Substrate screening: sodium-dependent uptake of radiolabeled compounds in NTCP-HEK293 cells. The settings on record: NTCP-HEK293, vs sodium-free control. More on the design: The full-length open reading frames of NTCP, ASBT, and SOAT were cloned; expressed in transfected cells; host or cells: Flp-In T-REX HEK293 (NTCP-HEK293), tetracycline-induced. In kind it is cell-based. The protocol: (§1) Stably SLC10 transporter transfected NTCP-HEK293, ASBT-HEK293, SOAT-HEK293 cells and the HEK293-FlpIn maternal cell line were seeded on 24-well plates (if not stated otherwise for individual assays). Well plates were coated with poly-D-lysine prior to seeding of 125,000 cells per well. Cells were grown with 1 ml of standard medium per well with or without tetracycline ([…]) for 72 h to induce carrier expression before respective assays were started. HEK293-FlpIn cells were cultivated with standard medium and served as control.
(§2) Uptake experiments were initiated by replacing the preincubation buffer by 500 μL transport buffer containing the radiolabeled test compound and were performed at 37°C. Transport was terminated by removing the transport buffer and washing five-times with ice-cold PBS. Cell monolayers were lysed in 1 N NaOH with 0.1% SDS and the cell-associated radioactivity was determined by liquid scintillation counting.
(§3) FIGURE 1 Comparative substrate screening for bile acids and sulfated steroids in NTCP-, ASBT-, and SOAT-HEK293 cells. Transport assays were performed with the indicated substrates in NTCP-HEK293, ABST-HEK293, SOAT-HEK293, and HEK293-FlpIn cells. Cells were washed and equilibrated with Na^+-containing transport buffer (filled bars) or with Na^+-free transport buffer (open bars) at 37°C. For uptake, cells were incubated with radiolabeled steroid compounds at a final concentration of 200 nM in Na^+-containing or Na^+-free transport buffer for 10 min. Radiolabeled bile acids were used at 1 µM concentrations and transport was analyzed over 30 min. HEK293-FlpIn cells served as additional controls. After the indicated time intervals, cells were washed with ice-cold PBS, lysed and subjected to liquid scintillation counting. […] 3-OH, trihydroxylated BAs; 2-OH, dihydroxylated BAs; 1-OH, monohydroxylated BAs.

Assay [2] concerns the target T1, NTCP. As to the kind of experiment: Transport inhibition in NTCP-HEK293 cells. The settings on record: NTCP-HEK293.
Assay [3] concerns the target T2, ASBT (Homo sapiens, UniProt Q12908).
T2 construct: The full-length open reading frames of NTCP, ASBT, and SOAT were cloned; expressed in transfected cells; host or cells: Flp-In T-REX HEK293 (ASBT-HEK293), tetracycline-induced
T2 sequence (Q12908 1-348): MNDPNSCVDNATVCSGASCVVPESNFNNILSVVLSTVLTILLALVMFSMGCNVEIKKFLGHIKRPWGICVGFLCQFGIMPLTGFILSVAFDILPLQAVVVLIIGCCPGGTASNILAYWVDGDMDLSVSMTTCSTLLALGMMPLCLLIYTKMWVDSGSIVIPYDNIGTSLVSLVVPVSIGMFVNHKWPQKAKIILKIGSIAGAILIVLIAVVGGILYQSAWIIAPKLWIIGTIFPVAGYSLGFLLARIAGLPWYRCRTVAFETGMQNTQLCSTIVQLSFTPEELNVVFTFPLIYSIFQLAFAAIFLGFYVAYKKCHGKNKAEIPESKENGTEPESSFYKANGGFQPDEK
The assay is described as follows: Substrate screening: sodium-dependent uptake of radiolabeled compounds in ASBT-HEK293 cells. In kind it is cell-based. The settings on record: radiolabeled bile acids 1 µM, 30 min, ASBT-HEK293, vs sodium-free control. The method, then:
as §1, §2, §3

Where [4] appears, read: radiolabeled bile acids 1 µM, 30 min.

Like-named read-outs stand apart in the source and are kept apart here.

Turning to `C[C@H](CCC(=O)O)[C@H]1CC[C@H]2[C@@H]3[C@@H](O)C[C@@H]4C[C@H](O)CC[C@]4(C)[C@H]3CC[C@]12C` [Ursodeoxycholic acid], in assay [1] (setting [4]), the “Transport activity grading NTCP (mean uptake)” value (shortened to “Transport activity grading NTCP”) is “+ (Mean uptake of bile acids “+” for values below 500)”.

As for “myr-preS1: 2–48 N-terminal amino acids of the myristoylated preS1 domain of the HBV/HDV large envelope protein (GQNLSTSNPLGFFPDHQLDPAFRANTANPDWDFNPNKDTWPDANKVG; N-terminal myristoyl on Gly2)”, the IC50 in assay [2] (read-out: IC50 for inhibition of [3H]DHEAS transport via NTCP, 200 nM DHEAS) is 0.167 µM; in assay [2] (read-out: IC50 for inhibition of [3H]TC transport via NTCP, 200 nM TC) it was 0.182 µM; in assay [2] (read-out: IC50 for inhibition of [3H]TLC transport via NTCP, 200 nM TLC) it was 0.316 µM.

Regarding `C[C@H](CCC(=O)NCCS(=O)(=O)O)[C@H]1CC[C@H]2[C@@H]3[C@@H](O)C[C@@H]4C[C@H](O)CC[C@]4(C)[C@H]3CC[C@]12C` [Tauroursodeoxycholic acid], the “Transport activity grading NTCP” value in assay [1] (setting [4]) is listed as “+++ (“+++” for values above 1000 pmol/mg protein/30 min)”. The “Transport activity grading ASBT (mean uptake)” value (from here on “Transport activity grading ASBT”) in assay [3] was “++ (“++” for values between 500 and 1000)”.

Consider `CC(CCC(=O)NCC(=O)O)C1CCC2C3CCC4CC(O)CCC4(C)C3CC(O)C12C` (stereo not shown) [Glycodeoxycholic acid], for which the “Transport activity grading NTCP” value in assay [1] (setting [4]) was “+++ (“+++” for values above 1000 pmol/mg protein/30 min)”. The “Transport activity grading ASBT” value in assay [3] was “++ (“++” for values between 500 and 1000)”.

On to `C[C@H](CCC(=O)O)[C@H]1CC[C@H]2[C@@H]3[C@H](O)C[C@@H]4C[C@H](O)CC[C@]4(C)[C@H]3CC[C@]12C` [Chenodeoxycholic acid], for which the “Transport activity grading NTCP” value in assay [1] (setting [4]) is reported as “+ (Mean uptake of bile acids “+” for values below 500)”. The “Transport activity grading ASBT” value in assay [3] is listed as “+ (Mean uptake of bile acids “+” for values below 500)”.

On to `C[C@]12CC[C@@H]3c4ccc(O[C@@H]5O[C@H](C(=O)O)[C@@H](O)[C@H](O)[C@H]5O)cc4CC[C@H]3[C@@H]1CCC2=O` [Estrone-3β-D-glucuronide], for which the “Transport activity grading NTCP” value in assay [1] (radiolabeled steroid compounds 200 nM, 10 min) is recorded as “+ (Mean uptake “+” for values below 10)”.

Take `C[C@H](CCC(=O)NCCS(=O)(=O)O)[C@H]1CC[C@H]2[C@@H]3CC[C@@H]4C[C@H](O)CC[C@]4(C)[C@H]3C[C@H](O)[C@]12C` [Taurodeoxycholic acid]: in assay [1] (setting [4]), the “Transport activity grading NTCP” value is “+++ (“+++” for values above 1000 pmol/mg protein/30 min)”. Moreover, in assay [3], the “Transport activity grading ASBT” value was “++ (“++” for values between 500 and 1000)”.

On to `C[C@H](CCC(=O)O)[C@H]1CC[C@H]2[C@@H]3CC[C@@H]4C[C@H](O)CC[C@]4(C)[C@H]3C[C@H](O)[C@]12C` [Deoxycholic acid], for which the “Transport activity grading NTCP” value in assay [1] (setting [4]) is given as “+ (Mean uptake of bile acids “+” for values below 500)”. Besides, the “Transport activity grading ASBT” value in assay [3] was “+ (Mean uptake of bile acids “+” for values below 500)”.

With `C[C@H](CCC(=O)NCC(=O)O)[C@H]1CC[C@H]2[C@@H]3[C@H](O)C[C@@H]4C[C@H](O)CC[C@]4(C)[C@H]3C[C@H](O)[C@]12C` [Glycocholic acid], in assay [1] (setting [4]), the “Transport activity grading NTCP” value is recorded as “+++ (“+++” for values above 1000 pmol/mg protein/30 min)”. The “Transport activity grading ASBT” value in assay [3] is “++ (“++” for values between 500 and 1000)”.

For `C[C@H](CCC(=O)NCC(=O)O)[C@H]1CC[C@H]2[C@@H]3[C@@H](O)C[C@@H]4C[C@H](O)CC[C@]4(C)[C@H]3CC[C@]12C` [Glycoursodeoxycholic acid], the “Transport activity grading NTCP” value in assay [1] (setting [4]) was “+++ (“+++” for values above 1000 pmol/mg protein/30 min)”. Also, the “Transport activity grading ASBT” value in assay [3] is “++ (“++” for values between 500 and 1000)”.

For the compound `C[C@H](CCC(=O)NCCS(=O)(=O)O)[C@H]1CC[C@H]2[C@@H]3[C@H](O)C[C@@H]4C[C@H](O)CC[C@]4(C)[C@H]3CC[C@]12C` [Taurochenodeoxycholic acid], the “Transport activity grading NTCP” value in assay [1] (setting [4]) is given as “+++ (“+++” for values above 1000 pmol/mg protein/30 min)”. For the same compound, the “Transport activity grading ASBT” value in assay [3] was “++ (“++” for values between 500 and 1000)”.

As to `C[C@H](CCC(=O)O)[C@H]1CC[C@H]2[C@@H]3[C@H](O)C[C@@H]4C[C@H](O)CC[C@]4(C)[C@H]3C[C@H](O)[C@]12C` [Cholic acid], the “Transport activity grading NTCP” value in assay [1] (setting [4]) was “++ (“++” for values between 500 and 1000)”. The “Transport activity grading ASBT” value in assay [3] was “+ (Mean uptake of bile acids “+” for values below 500)”.

Regarding `CC(CCC(=O)NCC(=O)O)C1CCC2C3C(O)CC4CC(O)CCC4(C)C3CCC12C` (stereo not shown) [Glycochenodeoxycholic acid], the “Transport activity grading NTCP” value in assay [1] (setting [4]) was “+++ (“+++” for values above 1000 pmol/mg protein/30 min)”. Also, the “Transport activity grading ASBT” value in assay [3] is “++ (“++” for values between 500 and 1000)”.
